Reference: publication PMC6357004 (Viruses, 2018)

Legend:
[1] = biological target: neuraminidase (NA) of recombinant influenza B/Phuket/3073/2013 WT virus (Influenza B virus, UniProt A0A1S5RAG6); type: biochemical, influenza B/Phuket/3073/2013 virus
N294S mutant = conditions: cited from earlier work

neuraminidase (NA) of recombinant influenza B/Phuket/3073/2013 WT virus, sequence (A0A1S5RAG6 entry or part of it, added parts left off): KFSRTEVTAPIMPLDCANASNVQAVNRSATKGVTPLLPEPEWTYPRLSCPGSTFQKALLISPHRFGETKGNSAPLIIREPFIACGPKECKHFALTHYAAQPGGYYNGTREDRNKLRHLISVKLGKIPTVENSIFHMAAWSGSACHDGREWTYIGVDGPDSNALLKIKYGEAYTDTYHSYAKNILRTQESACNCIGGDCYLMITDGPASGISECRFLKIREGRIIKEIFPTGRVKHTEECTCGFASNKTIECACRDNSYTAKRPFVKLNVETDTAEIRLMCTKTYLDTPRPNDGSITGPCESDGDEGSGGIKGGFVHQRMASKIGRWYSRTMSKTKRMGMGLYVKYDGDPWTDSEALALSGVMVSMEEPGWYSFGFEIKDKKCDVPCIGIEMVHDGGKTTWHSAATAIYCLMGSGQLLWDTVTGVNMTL

Compound | Folds (fold changes according to WT virus) [1] [fold] | IC50 ([1]; mean of two independent experiments in duplicate, read-out: Neuraminidase Inhibitors IC50 values) [nM] | susceptibility phenotype (N294S mutant)
CCC(CC)[C@H](NC(C)=O)[C@@H]1[C@H](O)[C@@H](C(=O)O)C[C@H]1N=C(N)N [Peramivir, peramivir] | 1 | 0.74 | 
CC(=O)N[C@H]1[C@H]([C@H](O)[C@H](O)CO)OC(C(=O)O)=C[C@@H]1N=C(N)N [Zanamivir, zanamivir] |  |  | susceptible
